Experimental data reported in paper PMC12454493, “Insight on novel sulfamoylphenyl pyrazole derivatives as anticancer carbonic anhydrase inhibitors” (Molecular Diversity, 2024).

Legend:
[1] = test system: A549/ATCC; experiment: NCI-60 one-dose SRB screen (Non-Small Cell Lung Cancer); format: cell-based; conditions: Homo sapiens, single dose 10 µM, 48 h, read-out: Growth inhibition percent (GI %)
Procedure: (§1) The National Cancer Institute (NCI) Developmental Therapeutic Program (www.dtp.nci.nih.gov) selected the 20 novel synthesized compounds 4a-e, 5a-e, 6a-c, 9a-e, 10 and 11 to test for their anticancer activity at a single dose of 10 µM using SRB assay. […] Supplementary Data S3; Table S1 presents the detailed screening results of the most promising compounds. The preliminary screening’s detailed results for the remaining compounds are elucidated in the (Supplementary Data S3; Table S2).
(§2) The guidelines of the Drug Evaluation Branch’s protocol at the NCI in Bethesda served as the basis for the in vitro anticancer screening assays. at one dose 10 µM against a panel of 60 cancer cell lines. The human tumor cell lines used belonged to nine panels: leukemia, melanoma, lung, colon, CNS, ovarian, renal, prostate and breast cancers using the sulforhodamine B (SRB) assay in a 48 h drug exposure protocol.

[2] = test system: EKVX; experiment: as above; format: cell-based; conditions: Homo sapiens, single dose 10 µM, 48 h, read-out: Growth inhibition percent (GI %)
Procedure: as §1, §2

[3] = test system: HOP-62; experiment: as above; format: cell-based; conditions: Homo sapiens, single dose 10 µM, 48 h, read-out: Growth inhibition percent (GI %)
Procedure: as §1, §2

[4] = test system: HOP-92; experiment: as above; format: cell-based; conditions: Homo sapiens, single dose 10 µM, 48 h, read-out: Growth inhibition percent (GI %)
Procedure: as §1, §2

[5] = test system: NCI-H226; experiment: as above; format: cell-based; conditions: Homo sapiens, single dose 10 µM, 48 h, read-out: Growth inhibition percent (GI %)
Procedure: as §1, §2

[6] = test system: NCI-H23; experiment: as above; format: cell-based; conditions: Homo sapiens, single dose 10 µM, 48 h, read-out: Growth inhibition percent (GI %)
Procedure: as §1, §2

[7] = test system: NCI-H322M; experiment: as above; format: cell-based; conditions: Homo sapiens, single dose 10 µM, 48 h, read-out: Growth inhibition percent (GI %)
Procedure: as §1, §2

[8] = test system: NCI-H460; experiment: as above; format: cell-based; conditions: Homo sapiens, single dose 10 µM, 48 h, read-out: Growth inhibition percent (GI %)
Procedure: as §1, §2

[9] = test system: NCI-H522; experiment: as above; format: cell-based; conditions: Homo sapiens, single dose 10 µM, 48 h, read-out: Growth inhibition percent (GI %)
Procedure: as §1, §2

[10] = test system: COLO 205; experiment: NCI-60 one-dose SRB screen (Colon Cancer); format: cell-based; conditions: Homo sapiens, single dose 10 µM, 48 h, read-out: Growth inhibition percent (GI %)
Procedure: as §1, §2

[11] = test system: HCC-2998; experiment: NCI-60 one-dose SRB screen (Colon Cancer); format: cell-based; conditions: Homo sapiens, single dose 10 µM, 48 h, read-out: Growth inhibition percent (GI %)
Procedure: as §1, §2

[12] = test system: HCT-116; experiment: NCI-60 one-dose SRB screen (Colon Cancer); format: cell-based; conditions: Homo sapiens, single dose 10 µM, 48 h, read-out: Growth inhibition percent (GI %)
Procedure: as §1, §2

[13] = test system: HCT-15; experiment: NCI-60 one-dose SRB screen (Colon Cancer); format: cell-based; conditions: Homo sapiens, single dose 10 µM, 48 h, read-out: Growth inhibition percent (GI %)
Procedure: as §1, §2

[14] = test system: HT29; experiment: NCI-60 one-dose SRB screen (Colon Cancer); format: cell-based; conditions: Homo sapiens, HT-29, single dose 10 µM, 48 h, read-out: Growth inhibition percent (GI %)
Procedure: as §1, §2

[15] = test system: KM12; experiment: NCI-60 one-dose SRB screen (Colon Cancer); format: cell-based; conditions: Homo sapiens, single dose 10 µM, 48 h, read-out: Growth inhibition percent (GI %)
Procedure: as §1, §2

[16] = test system: SW-620; experiment: NCI-60 one-dose SRB screen (Colon Cancer); format: cell-based; conditions: Homo sapiens, single dose 10 µM, 48 h, read-out: Growth inhibition percent (GI %)
Procedure: as §1, §2

[17] = test system: SF-268; experiment: NCI-60 one-dose SRB screen (CNS Cancer); format: cell-based; conditions: Homo sapiens, single dose 10 µM, 48 h, read-out: Growth inhibition percent (GI %)
Procedure: as §1, §2

[18] = test system: SF-295; experiment: NCI-60 one-dose SRB screen (CNS Cancer); format: cell-based; conditions: Homo sapiens, single dose 10 µM, 48 h, read-out: Growth inhibition percent (GI %)
Procedure: as §1, §2

[19] = test system: SF-539; experiment: NCI-60 one-dose SRB screen (CNS Cancer); format: cell-based; conditions: Homo sapiens, single dose 10 µM, 48 h, read-out: Growth inhibition percent (GI %)
Procedure: as §1, §2

[20] = test system: SNB-19; experiment: NCI-60 one-dose SRB screen (CNS Cancer); format: cell-based; conditions: Homo sapiens, single dose 10 µM, 48 h, read-out: Growth inhibition percent (GI %)
Procedure: as §1, §2

[21] = test system: SNB-75; experiment: NCI-60 one-dose SRB screen (CNS Cancer); format: cell-based; conditions: Homo sapiens, single dose 10 µM, 48 h, read-out: Growth inhibition percent (GI %)
Procedure: as §1, §2

[22] = test system: U251; experiment: NCI-60 one-dose SRB screen (CNS Cancer); format: cell-based; conditions: Homo sapiens, U-251, single dose 10 µM, 48 h, read-out: Growth inhibition percent (GI %)
Procedure: as §1, §2

[23] = test system: LOX IMVI; experiment: NCI-60 one-dose SRB screen (Melanoma); format: cell-based; conditions: Homo sapiens, single dose 10 µM, 48 h, read-out: Growth inhibition percent (GI %)
Procedure: as §1, §2

[24] = test system: M14; experiment: NCI-60 one-dose SRB screen (Melanoma); format: cell-based; conditions: Homo sapiens, single dose 10 µM, 48 h, read-out: Growth inhibition percent (GI %)
Procedure: as §1, §2

[25] = test system: MALME-3M; experiment: NCI-60 one-dose SRB screen (Melanoma); format: cell-based; conditions: Homo sapiens, single dose 10 µM, 48 h, read-out: Growth inhibition percent (GI %)
Procedure: as §1, §2

[26] = test system: MDA-MB-435; experiment: NCI-60 one-dose SRB screen (Melanoma); format: cell-based; conditions: Homo sapiens, single dose 10 µM, 48 h, read-out: Growth inhibition percent (GI %)
Procedure: as §1, §2

[27] = test system: SK-MEL-28; experiment: NCI-60 one-dose SRB screen (Melanoma); format: cell-based; conditions: Homo sapiens, single dose 10 µM, 48 h, read-out: Growth inhibition percent (GI %)
Procedure: as §1, §2

[28] = test system: SK-MEL-2; experiment: NCI-60 one-dose SRB screen (Melanoma); format: cell-based; conditions: Homo sapiens, single dose 10 µM, 48 h, read-out: Growth inhibition percent (GI %)
Procedure: as §1, §2

[29] = test system: SK-MEL-5; experiment: NCI-60 one-dose SRB screen (Melanoma); format: cell-based; conditions: Homo sapiens, single dose 10 µM, 48 h, read-out: Growth inhibition percent (GI %)
Procedure: as §1, §2

[30] = test system: UACC-257; experiment: NCI-60 one-dose SRB screen (Melanoma); format: cell-based; conditions: Homo sapiens, single dose 10 µM, 48 h, read-out: Growth inhibition percent (GI %)
Procedure: as §1, §2

[31] = test system: IGROV1; experiment: NCI-60 one-dose SRB screen (Ovarian cancer); format: cell-based; conditions: Homo sapiens, IGROV-1, single dose 10 µM, 48 h, read-out: Growth inhibition percent (GI %)
Procedure: as §1, §2

[32] = test system: NCI/ADR-RES; experiment: NCI-60 one-dose SRB screen (Ovarian cancer); format: cell-based; conditions: Homo sapiens, single dose 10 µM, 48 h, read-out: Growth inhibition percent (GI %)
Procedure: as §1, §2

[33] = test system: OVCAR-3; experiment: NCI-60 one-dose SRB screen (Ovarian cancer); format: cell-based; conditions: Homo sapiens, single dose 10 µM, 48 h, read-out: Growth inhibition percent (GI %)
Procedure: as §1, §2

[34] = test system: OVCAR-4; experiment: NCI-60 one-dose SRB screen (Ovarian cancer); format: cell-based; conditions: Homo sapiens, single dose 10 µM, 48 h, read-out: Growth inhibition percent (GI %)
Procedure: as §1, §2

[35] = test system: OVCAR-5; experiment: NCI-60 one-dose SRB screen (Ovarian cancer); format: cell-based; conditions: Homo sapiens, single dose 10 µM, 48 h, read-out: Growth inhibition percent (GI %)
Procedure: as §1, §2

[36] = test system: OVCAR-8; experiment: NCI-60 one-dose SRB screen (Ovarian cancer); format: cell-based; conditions: Homo sapiens, single dose 10 µM, 48 h, read-out: Growth inhibition percent (GI %)
Procedure: as §1, §2

[37] = test system: SK-OV-3; experiment: NCI-60 one-dose SRB screen (Ovarian cancer); format: cell-based; conditions: Homo sapiens, single dose 10 µM, 48 h, read-out: Growth inhibition percent (GI %)
Procedure: as §1, §2

[38] = test system: 786-0; experiment: NCI-60 one-dose SRB screen (Renal Cancer); format: cell-based; conditions: Homo sapiens, single dose 10 µM, 48 h, read-out: Growth inhibition percent (GI %)
Procedure: as §1, §2

[39] = test system: A498; experiment: NCI-60 one-dose SRB screen (Renal Cancer); format: cell-based; conditions: Homo sapiens, single dose 10 µM, 48 h, read-out: Growth inhibition percent (GI %)
Procedure: as §1, §2

[40] = test system: ACHN; experiment: NCI-60 one-dose SRB screen (Renal Cancer); format: cell-based; conditions: Homo sapiens, single dose 10 µM, 48 h, read-out: Growth inhibition percent (GI %)
Procedure: as §1, §2

[41] = test system: CAKI-1; experiment: NCI-60 one-dose SRB screen (Renal Cancer); format: cell-based; conditions: Homo sapiens, single dose 10 µM, 48 h, read-out: Growth inhibition percent (GI %)
Procedure: as §1, §2

[42] = test system: RXF 393; experiment: NCI-60 one-dose SRB screen (Renal Cancer); format: cell-based; conditions: Homo sapiens, single dose 10 µM, 48 h, read-out: Growth inhibition percent (GI %)
Procedure: as §1, §2

[43] = test system: TK-10; experiment: NCI-60 one-dose SRB screen (Renal Cancer); format: cell-based; conditions: Homo sapiens, single dose 10 µM, 48 h, read-out: Growth inhibition percent (GI %)
Procedure: as §1, §2

[44] = test system: UO-31; experiment: NCI-60 one-dose SRB screen (Renal Cancer); format: cell-based; conditions: Homo sapiens, single dose 10 µM, 48 h, read-out: Growth inhibition percent (GI %)
Procedure: as §1, §2

[45] = test system: DU-145; experiment: NCI-60 one-dose SRB screen (Prostate Cancer); format: cell-based; conditions: Homo sapiens, single dose 10 µM, 48 h, read-out: Growth inhibition percent (GI %)
Procedure: as §1, §2

[46] = test system: PC-3; experiment: NCI-60 one-dose SRB screen (Prostate Cancer); format: cell-based; conditions: Homo sapiens, single dose 10 µM, 48 h, read-out: Growth inhibition percent (GI %)
Procedure: as §1, §2

[47] = target: hCA XII (Homo sapiens, UniProt O43570); experiment: CA inhibitory activity, spectrophotometric p-NPA assay; format: biochemical; conditions: p-NPA substrate, pH 7.5, 25 °C, triplicate; read-out: IC50 (µM) ± SD hCA XII
Sequence of hCA XII (O43570 25-354): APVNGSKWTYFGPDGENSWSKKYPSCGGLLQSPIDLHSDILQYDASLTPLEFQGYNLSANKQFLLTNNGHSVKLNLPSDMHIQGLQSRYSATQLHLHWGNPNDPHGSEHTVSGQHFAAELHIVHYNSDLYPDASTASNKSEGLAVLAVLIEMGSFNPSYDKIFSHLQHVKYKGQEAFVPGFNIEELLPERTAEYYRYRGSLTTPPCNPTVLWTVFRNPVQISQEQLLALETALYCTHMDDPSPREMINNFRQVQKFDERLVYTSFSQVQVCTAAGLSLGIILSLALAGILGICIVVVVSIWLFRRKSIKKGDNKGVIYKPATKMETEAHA

In the case of NC(=S)NNC(=O)c1cn(-c2ccc(S(N)(=O)=O)cc2)nc1-c1ccccc1 [Compound 9a, 2-[3-Phenyl-1-(4-sulfamoylphenyl)-1H-pyrazole-4-carbonyl] hydrazine-1-carbothioamide], the inhibition at 10 µM [1] is reported as 10.9%, the inhibition at 10 µM [2] is reported as < 5% and the inhibition at 10 µM [3] is reported as 8.3%. The inhibition at 10 µM [4] was < 5%, the inhibition at 10 µM [5] was < 5% and the inhibition at 10 µM [6] was < 5%. The inhibition at 10 µM [7] was < 5%, the inhibition at 10 µM [8] was < 5% and the inhibition at 10 µM [9] was 23.9%. For the same compound, the inhibition at 10 µM [10] was < 5%, the inhibition at 10 µM [11] was < 5% and the inhibition at 10 µM [12] was < 5%. The inhibition at 10 µM [13] was < 5%, the inhibition at 10 µM [14] was 10.8% and the inhibition at 10 µM [15] was < 5%. The inhibition at 10 µM [16] was < 5%, the inhibition at 10 µM [17] was < 5% and the inhibition at 10 µM [18] was < 5%. For the same compound, the inhibition at 10 µM [19] was 6.07%, the inhibition at 10 µM [20] was < 5% and the inhibition at 10 µM [21] was < 5%. The inhibition at 10 µM [22] was < 5%, the inhibition at 10 µM [23] was < 5% and the inhibition at 10 µM [24] was < 5%. The inhibition at 10 µM [25] was < 5%, the inhibition at 10 µM [26] was < 5% and the inhibition at 10 µM [27] was < 5%. The inhibition at 10 µM [28] was < 5%, the inhibition at 10 µM [29] was < 5% and the inhibition at 10 µM [30] was < 5%. For the same compound, the inhibition at 10 µM [31] was < 5%, the inhibition at 10 µM [32] was < 5% and the inhibition at 10 µM [33] was < 5%. For the same compound, the inhibition at 10 µM [34] was < 5%, the inhibition at 10 µM [35] was < 5% and the inhibition at 10 µM [36] was < 5%. For the same compound, the inhibition at 10 µM [37] was < 5%, the inhibition at 10 µM [38] was 9.98% and the inhibition at 10 µM [39] was < 5%. The inhibition at 10 µM [40] was < 5%, the inhibition at 10 µM [41] was < 5% and the inhibition at 10 µM [42] was < 5%. The inhibition at 10 µM [43] was 12.3%, the inhibition at 10 µM [44] was < 5% and the inhibition at 10 µM [45] was < 5%. The inhibition at 10 µM [46] was < 5% and the IC50 [47] was 0.605 ± 0.023 µM.
